Consider 32 compounds from US11555012B2 (Nimbus Artemis, Inc., priority 2018, dated 2023).

Some results are limits rather than exact numbers.

Sequence of ACL (P53396 other isoform, or with tags, fused parts or gaps isoform P53396-2): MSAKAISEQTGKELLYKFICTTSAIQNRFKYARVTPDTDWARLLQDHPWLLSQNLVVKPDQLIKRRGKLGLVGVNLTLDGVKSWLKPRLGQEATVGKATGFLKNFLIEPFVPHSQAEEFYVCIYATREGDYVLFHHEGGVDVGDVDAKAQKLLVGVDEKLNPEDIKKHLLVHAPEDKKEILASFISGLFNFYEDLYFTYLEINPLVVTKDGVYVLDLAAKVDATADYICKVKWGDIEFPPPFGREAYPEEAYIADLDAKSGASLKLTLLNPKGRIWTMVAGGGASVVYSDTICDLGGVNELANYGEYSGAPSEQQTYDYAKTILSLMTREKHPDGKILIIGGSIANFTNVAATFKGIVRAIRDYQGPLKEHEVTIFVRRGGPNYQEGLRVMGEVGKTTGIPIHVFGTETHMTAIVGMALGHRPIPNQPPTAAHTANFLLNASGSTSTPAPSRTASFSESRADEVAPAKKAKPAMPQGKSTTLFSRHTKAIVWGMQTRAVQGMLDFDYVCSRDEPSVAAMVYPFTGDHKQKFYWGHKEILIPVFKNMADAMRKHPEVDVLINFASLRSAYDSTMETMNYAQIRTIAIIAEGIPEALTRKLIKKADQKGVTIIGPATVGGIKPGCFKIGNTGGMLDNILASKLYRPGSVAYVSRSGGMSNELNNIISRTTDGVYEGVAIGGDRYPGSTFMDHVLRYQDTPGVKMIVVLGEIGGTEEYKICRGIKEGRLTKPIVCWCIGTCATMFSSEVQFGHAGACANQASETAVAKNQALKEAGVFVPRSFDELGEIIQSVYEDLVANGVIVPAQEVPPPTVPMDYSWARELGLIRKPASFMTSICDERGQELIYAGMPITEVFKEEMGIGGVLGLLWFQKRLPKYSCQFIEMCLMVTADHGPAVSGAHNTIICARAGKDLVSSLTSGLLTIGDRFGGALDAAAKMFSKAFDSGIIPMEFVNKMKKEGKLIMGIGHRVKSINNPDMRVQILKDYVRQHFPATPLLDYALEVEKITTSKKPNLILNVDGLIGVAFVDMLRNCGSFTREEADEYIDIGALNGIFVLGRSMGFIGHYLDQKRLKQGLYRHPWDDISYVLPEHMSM

The first assay has as its target ACL (Homo sapiens (Human), UniProt P53396). The assay is described as follows: ADP-Glo Assay.
Conditions: not given
Take `Cc1c(-c2ccccc2)ccc(C(=O)O)c1NS(=O)(=O)c1cc(Cl)cc(C(F)(F)F)c1` [I-365, 3-((3-chloro-5-(trifluoromethyl)phenyl)sulfonamido)-2-methyl-[1,1′-biphenyl]-4-carboxylic Acid]: the IC50 lay within 0.5 to 20 µM.

The compound `Nc1cc(-c2ccccc2)ccc1NS(=O)(=O)c1cc(Cl)cc(Br)c1O` [I-57, N-(2-amino-4-phenylphenyl)-3-bromo-5-chloro-2-hydroxybenzene-1-sulfonamide] gave an IC50 of 0.5 to 20 µM.

Consider `CCC(=O)Nc1c(Cl)cc(Cl)cc1S(=O)(=O)Nc1cc(-c2ccccc2)ccc1OC` [I-440, N-[2,4-dichloro-6-[(2-methoxy-5-phenylphenyl)sulfamoyl]phenyl]propanamide], for which the IC50 is greater than 20 µM.

As to `COc1ccc(-c2ccccc2)cc1NS(=O)(=O)c1cc(Cl)cc(Cl)c1N` [I-414, 2-amino-3,5-dichloro-N-(2-methoxy-5-phenylphenyl) benzene-1-sulfonamide], the IC50 was greater than 20 µM.

The compound `CC(NS(=O)(=O)c1cc(Cl)cc(Cl)c1O)c1ccc2c(c1)NC(=O)CO2` (centres unmarked) [I-184] yielded an IC50 of 0.5 to 20 µM.

In turn, `COC(=O)c1ncccc1S(=O)(=O)Nc1cc(-c2ccccc2)ccc1F` [I-250] gave an IC50 of 0.5 to 20 µM.

`COc1ccc(-c2ccccc2)cc1NS(=O)(=O)c1cccc(C#N)c1` [I-396, 3-cyano-N-(2-methoxy-5-phenylphenyl) benzene-1-sulfonamide] came in with an IC50 greater than 20 µM.

Regarding `O=C(O)c1cc(Cl)c(Cl)c(S(=O)(=O)Nc2cc(-c3ccccc3)ccc2F)c1` [I-256], the IC50 lay within 0.5 to 20 µM.

In the case of `COc1ccc(-c2ccccc2)cc1NS(=O)(=O)c1cccc(C(=O)O)c1` [I-406, 3-(N-(4-methoxy-[1,1′-biphenyl]-3-yl)sulfamoyl)benzoic acid], the IC50 was greater than 20 µM.

The compound `CC(=O)c1cccc(S(=O)(=O)Nc2cc(-c3ccccc3)ccc2C(=O)O)c1` [I-314, 3-((3-acetylphenyl)sulfonamido)-[1,1′-biphenyl]-4-carboxylic Acid] had an IC50 of 0.5 to 20 µM.

The compound `O=C(NCc1cc(-c2ccccc2)ccc1C(=O)O)c1cc(Cl)cc(Cl)c1` [I-309, 3-((3,5-dichlorobenzamido)methyl)-[1,1′-biphenyl]-4-carboxylic Acid] yielded an IC50 of 0.5 to 20 µM.

Compound `O=S(=O)(Nc1cc(-c2ccccc2)ccc1F)c1cc(Cl)cc2ccoc12` [I-223, 5-chloro-N-[4-fluoro-[1,1-biphenyl]-3-yl]-1-benzofuran-7-sulfonamide] displayed an IC50 of 0.5 to 20 µM.

For the compound `O=S(=O)(Nc1cc(-c2ccccc2)ccc1O)c1cc(Cl)cc(Cl)c1` [I-224, 3,5-dichloro-N-(4-hydroxy-[1,1′-biphenyl]-3-yl)benzenesulfonamide], the IC50 is 0.5 to 20 µM.

Regarding `COc1ccc(NC(=O)C2CC2)cc1NS(=O)(=O)c1cc(Cl)cc(Cl)c1O` [I-8, N-(3-((3,5-dichloro-2-hydroxyphenyl)sulfonamido)-4-methoxyphenyl) cyclopropanecarboxamide], the IC50 was in the range of 0.5 to 20 µM.

Take `COc1ccc(-c2ccccc2)cc1NS(=O)(=O)c1cccc(-c2nnnn2C)c1` [I-437, N-(2-methoxy-5-phenylphenyl)-3-(1-methyl-1H-1,2,3,4-tetrazol-5-yl)benzene-1-sulfonamide]: the half-inhibitory concentration (IC50) is greater than 20 µM.

Compound `O=C(O)COc1c(Cl)cc(Cl)cc1S(=O)(=O)Nc1cc(-c2ccccc2)c(F)cc1F` [I-77, 2-(2,4-dichloro-6-(N-(4,6-difluoro-[1,1′-biphenyl]-3-yl)sulfamoyl)phenoxy)acetic Acid] returned an IC50 of 0.5 to 20 µM.

`O=C(O)c1cc(Cl)c(O)c(C(=O)Nc2cc(-c3ccccc3)c(F)cc2F)c1` [I-155, 3-chloro-5-((4,6-difluoro-[1,1′-biphenyl]-3-yl)carbamoyl)-4-hydroxybenzoic Acid]: the IC50 lay within 0.5 to 20 µM.

The compound `CCS(=O)(=O)Nc1ccc(S(=O)(=O)Nc2cc(-c3ccccc3)ccc2F)c(OC)c1` [I-523, 4-(ethylsulfonamido)-N-(4-fluoro-[1,1′-biphenyl]-3-yl)-2-methoxybenzenesulfonamide] displayed an IC50 greater than 20 µM.

In turn, `CS(=O)(=O)NC(=O)c1ccc(F)c(NS(=O)(=O)c2cc(Cl)cc(Cl)c2O)c1` [I-423, 3-[(3,5-dichloro-2-hydroxybenzene)sulfonamido]-4-fluoro-N-methanesulfonylbenzamide] returned an IC50 greater than 20 µM.

Compound `O=C(O)c1ccc(-c2ccccc2)cc1NCc1cc(Cl)cc(Cl)c1` [I-267, 3-((3,5-dichlorobenzyl)amino)-[1,1′-biphenyl]-4-carboxylic Acid] had an IC50 of 0.5 to 20 µM.

In the case of `COc1ccc(-c2ccccc2)cc1N(Cc1cc(Cl)cc(Cl)c1O)S(C)(=O)=O` [I-391, N-(3,5-dichloro-2-hydroxybenzyl)-N-(4-methoxy-[1,1′-biphenyl]-3-yl)methanesulfonamide], the IC50 is greater than 20 µM.

Regarding `O=C(O)COc1ccc(-c2ccccc2)cc1NS(=O)(=O)c1cc(Cl)cc(Cl)c1` [I-244, 2-[[3-(3,5-dichlorobenzenesulfonamido)-[1,1-biphenyl]-4-yl]oxy]acetic Acid], the IC50 was in the range of 0.5 to 20 µM.

`O=C(O)c1c(NS(=O)(=O)c2cc(Cl)cc(Cl)c2)sc2c1CCCC2` [I-363, 2-((3,5-dichlorophenyl)sulfonamido)-4,5,6,7-tetrahydrobenzo[b]thiophene-3-carboxylic Acid] came in with a 50% inhibitory concentration (IC50) of 0.5 to 20 µM.

With `COc1ccc(C(=O)O)cc1NS(=O)(=O)c1cc(Cl)cc(Cl)c1O` [I-404, 3-((3,5-dichloro-2-hydroxyphenyl)sulfonamido)-4-methoxybenzoic acid], the IC50 was greater than 20 µM.

For the compound `O=C(Nc1cc(C(=O)N2CCC2)cc(Cl)c1O)c1cc(-c2ccccc2)ccc1F` [I-216, N-(5-(azetidine-1-carbonyl)-3-chloro-2-hydroxyphenyl)-4-fluoro-[1,1′-biphenyl]-3-carboxamide], the IC50 lay within 0.5 to 20 µM.

As to `O=C(O)c1ccc(-c2ccccc2)cc1NS(=O)(=O)c1cncc(Cl)c1` [I-247, 3-((5-chloropyridine)-3-sulfonamido)-[1,1′-biphenyl]-4-carboxylic Acid], the IC50 is 0.5 to 20 µM.

Compound `CNC(=O)COc1c(Cl)cc(Cl)cc1S(=O)(=O)Nc1cc(-c2ccccc2)ccc1F` [I-152, 2-(2,4-dichloro-6-(N-(4-fluoro-[1,1′-biphenyl]-3-yl)sulfamoyl)phenoxy)-N-methylacetamide] gave an IC50 of 0.5 to 20 µM.

`O=S(=O)(Nc1cc(-c2ccccc2)c(F)cc1F)c1cc(Cl)ccc1F` [I-156, 5-chloro-N-(4,6-difluoro-[1,1′-biphenyl]-3-yl)-2-fluorobenzenesulfonamide]: the IC50 was in the range of 0.5 to 20 µM.

For `O=C(O)COc1ccc(-c2ccccc2)cc1NS(=O)(=O)c1cc(F)cc(Cl)c1` [I-238, 2-((3-((3-chloro-5-fluorophenyl)sulfonamido)-[1,1′-biphenyl]-4-yl)oxy)acetic Acid], the IC50 lay in the range of 0.5 to 20 µM.

Turning to `NC(=O)c1sc2ccccc2c1NS(=O)(=O)c1cc(Cl)cc(Cl)c1O` [I-174], the IC50 fell in the range of 0.5 to 20 µM.

The same assay, now with this note: read-out: ACL-ADP-Glo (IC50); 3 nM ACL, 15 μM ATP, 3 μM CoA, 300 μM Citrate.
As for `CCOC(=O)c1cc(Cl)c(O)c(S(=O)(=O)Nc2cc(-c3cc4ccccc4s3)c(F)cc2OC)c1` [I-506, ethyl 3-(N-(5-(benzo[b]thiophen-2-yl)-4-fluoro-2-methoxyphenyl)sulfamoyl)-5-chloro-4-hydroxybenzoate], the IC50 is less than 0.05 µM.

With `O=C(O)Cc1ccc(-c2ccccc2)cc1NS(=O)(=O)c1cc(Cl)cc(Cl)c1` [I-228, 2-(3-((3,5-dichlorophenyl)sulfonamido)-[1,1′-biphenyl]-4-yl)acetic Acid], the IC50 is 0.5 to 20 µM.
